Patent US7638343B2, “Method to identify or evaluate compounds useful in the field of fragrances and aromas” (priority 2004, dated 2009)

Columns and labels:
human respiratory tract [1] = assay: Metabospace: real-time APCI-MS analysis of exhaled breath after inhalation of saturated headspace of test compound; format: in vivo; conditions: for decrease of mass chromatogram signal intensity as a function of inhalation/exhalation cycles (release in exhaled breath): after nasal inhalation of the substrate, about 30 inhalation/exhalation cycles
Procedure: The “Metabospace” technology allows real-time detection and analysis of in vivo generated metabolites (exhaled volatiles) starting from compounds of interest. First, a test subject inhales the saturated headspace of a volatile compound. The saturated headspace may be provided as described in the examples herein-below. The breath is exhaled directly into a glass funnel, which works as interface to an analysis device where mass spectra are recorded by a quadrupole mass spectrometer equipped with an atmospheric pressure chemical ionization (APCI) ion source with a modified interface which allows the measurement of fast dynamic changes of volatiles as described in Grab, W., and Gfeller, H. In: ACS Symposium Series 763—Flavor Release (Roberts, D. D., and Taylor, A. J., Eds.) American Chemical Society, Washington, D.C. (2002). The procedure may be performed for example as described further in the examples herein below.
Mass spectrum scans detect the entire range of pseudomolecular ions as well as ions of fragments of molecules. If candidate metabolites are already known, e.g. from in vitro data, the mass chromatogram corresponding to the pseudomolecular ion can be directly visualized together with the chromatogram for the substrate. Acetone is always present in human breath and can be used to show the respiration pattern. Mass spectrum scans of volatiles either exhaled from the nasal or the oral cavity are recorded in narrow time spans, for example twice per second, to follow changes in breath composition as a function of time and respiration cycles. Usually, a series of scans are done to detect other ions that may be linked to the substrate and/or metabolites, which can e.g. be derived from fragments of the substrate and/or the metabolites, as is well-known to the person skilled in the art. Various mass spectrum scans are performed as is well known in the art. In the present invention, a large number of mass spectrum scans are be recorded by the mass spectrometer (for example 2 scans per second). The total ion chromatogram (TIC) gives the total of signals. Individual signals, e.g. the pseudomolecular ion [M+H]^+ for acetone at m/z 59, may be singled out and analysed over time in so-called “mass chromatograms”. Metabolites appear as additional signals in scans, and specific signals are followed over time in respective mass chromatograms. During the first inhalation/exhalation cycles, scans are analysed for ions which are present in exhalations following the inhalation of surrounding air (blank, background) and are not derived from the test compound or from metabolites. It is well known in the art how to identify unknown signals. Depending on the chemistry of the test compound and the possible metabolic reactions which can take place, particular ions are expected to occur if such metabolism takes place. To narrow down the possibilities, a hypothesis based on the test compound (enzyme substrate) and potential biotransformation reactions resulting in metabolites is used. For example, metabolites that result from reactions of the test compound with oxidizing enzymes belonging to the group of CYP enzymes may undergo metabolism including hydroxylation or epoxidation reactions, and specific signals for such metabolites may be generally found at the m/z number of the substrate plus 16. […]

human respiratory tract [2] = assay: Metabo-GM: exhaled breath trapped on Tenax TA resin, thermodesorption, GC-MS; format: in vivo
[3] = target: T1, nasal metabolic enzyme CYP2A13 (Homo sapiens, UniProt Q16696); assay: Metabospace with volatile suppressor inhaled immediately prior to test compound; format: in vivo; conditions: suppressor (inhibitor of CYP2A13) inhaled immediately prior to test compound; compared with runs without suppressor
T1 construct: from tissue; host or cells: nasal cavity / respiratory tract of a living test subject
T1 sequence (Q16696 1-494): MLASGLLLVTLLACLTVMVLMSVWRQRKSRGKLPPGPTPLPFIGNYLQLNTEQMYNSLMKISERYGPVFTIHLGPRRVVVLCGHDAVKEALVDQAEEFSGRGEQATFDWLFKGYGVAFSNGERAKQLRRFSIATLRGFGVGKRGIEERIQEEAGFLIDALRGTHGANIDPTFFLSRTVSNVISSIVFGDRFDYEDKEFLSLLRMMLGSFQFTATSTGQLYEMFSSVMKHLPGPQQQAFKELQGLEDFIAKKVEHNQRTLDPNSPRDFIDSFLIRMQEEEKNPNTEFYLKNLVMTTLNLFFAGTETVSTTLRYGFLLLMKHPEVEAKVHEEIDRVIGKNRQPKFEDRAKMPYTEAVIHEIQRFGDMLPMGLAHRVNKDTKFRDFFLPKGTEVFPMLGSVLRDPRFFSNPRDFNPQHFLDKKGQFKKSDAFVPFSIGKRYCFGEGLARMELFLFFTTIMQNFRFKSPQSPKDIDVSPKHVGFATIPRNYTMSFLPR
Procedure: A volatile suppressor compound (inhibitor of nasal metabolic enzyme CYP2A13) is inhaled immediately prior to the inhalation of the test compound 2-methoxyacetophenone.
The test subject performs three runs in a row: (1) test compound only; (2) suppressor followed by test compound; (3) test compound only. Before and between runs, blank controls are recorded (inhalation of room air and recording of 30 inhalation/exhalation cycles).
The procedure is performed as described in example 6A, however, as a test compound ketanone is used and ketanone and its metabolite 4-(4-hydroxyphenyl)butan-2-one (raspberry ketone) are detected as described in example 5.

carboxyl esterase = assay: Metabo-GM with inhibitor of carboxyl esterase as suppressor inhaled before test compound; format: in vivo, human; conditions: for proportion of detected metabolite with suppressor compared to analysis without suppressor: carboxyl esterase inhibitor inhaled first, then test compound; for metabolite detected in exhaled breath by GC-MS: without suppressor
Procedure: The procedure is performed as described in examples 7 and 10 subject to the following modifications:
As suppressor, an inhibitor for carboxyl esterase is used. As test compound, phenethylacetate is used, which is a substrate for carboxyl esterase.
The procedure is performed as described in example 12A with an inhibitor for carboxyl esterase as suppressor, subject to the following modifications:
As test compound, styrallylacetate is used, which is a substrate for carboxyl esterase.

olfactory perception = conditions: cited from earlier work; for olfactory threshold / odour intensity: raspberry aroma, Winter (1961) Helv. Chim. Acta 44:2110
carboxyl esterases = assay: Cascade Olfactometer: perceived odour intensity and olfactory threshold of odorant with modulator (inhibitor of carboxyl esterases); format: in vivo, human
Procedure: A modulator is identified using an Olfactometer. As reference test compounds, odorant esters are used. A second test compound (potential modulator, modulator test compound) is tested in combination with these odorant test compounds. The odorant reference test compound is kept at a constant concentration with the modulator concentration being varied.
If metabolism is taking place, the amount of styrallylacetate which is stimulating the olfactory system is decreased.
A standard concentration (appropriate dilution of saturated headspace) of the odorant test compound is provided in one Olfactometer (cascade 1) as the reference, while in the second olfactometer (cascade 2) the odorant test compound is provided at the standard concentration supplemented with various concentrations of the modulator (appropriate dilutions of saturated headspace).
First, the threshold for the odorant styrallylacetate is determined for each test subject. The standard concentration is chosen so that it is perceived to be of week to moderate intensity as judged by each test subject.
The concentrations of the modulator test compound are chosen to be below the olfactory threshold of the test subject.
A sample is provided as headspace in a saturation chamber. The flow from said chamber is added to a carrier gas supply and mixed in a chamber which is connected with the sniffing port where a test subject detects the stimulus. Said flow (the headspace of the sample before addition to the carrier) is determined and adjusted so that the test subject rates said flow as medium intensity. This is the reference that is used in cascade 1. For styrallylacetate, a flow of 20 ml/min of the odorant is used. […]
The effect of the modulator on the olfactory threshold of styrallylacetate is determined in as follows. […]
Alternatively, a dose response curve is recorded using one olfactometer (Cascade 2) by providing samples above and below the detected olfactory threshold of the test subjects. This is compared to the known threshold of the compound which is recorded beforehand. […]

[4] = inhalation and exhalation both through the mouth

proportion of detected metabolite with suppressor compared to analysis without suppressor (carboxyl esterase) | metabolite detected in exhaled breath by GC-MS (carboxyl esterase) | SMILES | decrease of mass chromatogram signal intensity as a function of inhalation/exhalation cycles (release in exhaled breath) (human respiratory tract [1]) | amount of metabolite detected in exhaled breath by GC-MS (human respiratory tract [2]; [4]) | metabolite signal in exhaled breath in presence of suppressor [3] | olfactory threshold / odour intensity (olfactory perception) | also measured
about 50% | phenethylalcohol is detected | CC(=O)OCCc1ccccc1 [phenethylacetate] | – | – | – | – | –
significantly lower | styrallylalcohol is detected | CC(=O)OC(C)c1ccccc1 (stereo not drawn) [styrallylacetate] | – | Less styrallylalcohol (metabolite) is detected | – | – | metabolite detected in exhaled breath by GC-MS (human respiratory tract [2]; inhalation and exhalation through the nose): Significant amounts of styrallylalcohol and acetic acid (metabolites) are detected; olfactory threshold combined with modulator versus odorant alone (carboxyl esterases; dose response curve, one olfactometer, modulator constant): lower than the determined olfactory threshold for styrallylacetate alone; perceived intensity of the odorant in presence of the potential modulator (carboxyl esterases; odorant flow 20 ml/min constant, modulator flow varied 1 to 900 ml/min, below its olfactory threshold, versus reference without modulator): intensity of the odorant is increased; odour intensity in presence of modulator versus reference (JND protocol) (carboxyl esterases; styrallylacetate 20 ml/min in both cascades, modulator 5 ml/min in cascade 2): stronger than the reference concentration; olfactory threshold relative to its metabolite (olfactory perception; compared with styrallylalcohol): lower threshold than its metabolite styrallylalcohol

Second part, the compound before the results:

SMILES | proportion of detected metabolite with suppressor compared to analysis without suppressor (carboxyl esterase) | metabolite detected in exhaled breath by GC-MS (carboxyl esterase) | decrease of mass chromatogram signal intensity as a function of inhalation/exhalation cycles (release in exhaled breath) (human respiratory tract [1]) | amount of metabolite detected in exhaled breath by GC-MS (human respiratory tract [2]; [4]) | metabolite signal in exhaled breath in presence of suppressor [3] | olfactory threshold / odour intensity (olfactory perception) | also measured
COCC(=O)c1ccccc1 [2-methoxyacetophenone] | – | – | decreases relatively quickly, within about 30 inhalation/exhalation cycles | only in a small amount barely detectable | considerably less metabolite is formed in presence of the suppressor | – | metabolite signal in exhaled breath (human respiratory tract [1]; first variant: inhalation and exhalation both through the mouth): no signal corresponding to the metabolite is detected; amount of metabolite detected in exhaled breath by GC-MS (human respiratory tract [2]; inhalation through the mouth, exhalation through the nose): significantly more metabolite is detected
CC(=O)CCc1ccc(O)cc1 [4-(4-hydroxyphenyl)butan-2-one] | – | – | – | – | – | very low olfactory threshold | –
COc1ccc(CCC(C)=O)cc1 [ketanone] | – | – | retarded release of the more hydrophilic metabolite is observed | – | significantly decreased signal intensity for the metabolite | significantly less intense | metabolite detected in exhaled breath (mass chromatogram signal) (human respiratory tract [1]; inhalation and exhalation through the nose, human test subject): a compound is detected at m/z 165 which corresponds to 4(4-hydroxyphenyl)butan-2-one (raspberry ketone)
O=C(CO)c1ccccc1 [2-hydroxyacetophenone] | – | – | still near maximal intensity after 30 inhalation/exhalation recordings | – | – | – | –
